Measured values published in patent publication US20250340543A1, “GPR84 ANTAGONISTS AND USES THEREOF” (Liminal BioSciences Limited, priority 2021, published 2025).
pIC50: −log10 of the molar value.

Molecular target: GPR84 (Homo sapiens (Human), UniProt Q9NQS5)
Experiment: Gai biosensor BRET assay (GPR84-mediated activation of Gai, antagonist mode against agonist ZQ-16)
Format: cell-based
Details: for inhibition at 25 µM: compound tested at 25 μM (concentration code G); for inhibition at 10 µM: compound tested at 10 μM (concentration code D); for pIC50: HEK293 cells, 200 nmol/L GPR84 agonist ZQ-16, read-out: hGPR84 IC50; for inhibition at 5 µM: compound tested at 5 μM (concentration code C); for inhibition at 2 µM: compound tested at 2 μM (concentration code A); for inhibition at 12.5 µM: compound tested at 12.5 μM (concentration code E)
Summary of the method: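 Transiently transfected HEK293 cells expressing GPR84, Gαi2-Rluc8, GFP10-Gγ2 and Gβ1, in Tyrode's buffer pH 7.5. Compounds pre-incubated 5 min at 37° C, then 200 nmol/L ZQ-16 for 5 min at room temperature; BRET² with coelenterazine 400A, ligand-promoted net BRET after background and vehicle subtraction.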

Sequence of GPR84 (Q9NQS5 whole entry): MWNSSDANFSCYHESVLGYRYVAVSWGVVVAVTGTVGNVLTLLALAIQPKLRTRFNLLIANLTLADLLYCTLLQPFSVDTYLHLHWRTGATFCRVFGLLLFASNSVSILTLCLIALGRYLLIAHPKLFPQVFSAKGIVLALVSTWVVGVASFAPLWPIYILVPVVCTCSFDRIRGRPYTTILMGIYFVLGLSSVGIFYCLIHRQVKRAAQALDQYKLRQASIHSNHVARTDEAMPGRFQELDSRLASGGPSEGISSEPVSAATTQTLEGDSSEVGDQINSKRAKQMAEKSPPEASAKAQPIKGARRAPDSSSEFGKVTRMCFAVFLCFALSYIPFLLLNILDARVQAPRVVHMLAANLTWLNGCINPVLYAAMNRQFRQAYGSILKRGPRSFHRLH

| SMILES | inhibition at 25 µM | inhibition at 10 µM | other results |
| --- | --- | --- | --- |
| O=c1nc(OCC2COCCO2)ccn1Cc1cc(OCC(F)(F)F)ccc1Br (stereo not shown) [Compound I-77] | < 25% | – | – |
| O=c1nc(OCC2COCCO2)cc(-c2ccc(OCC(F)(F)F)cn2)[nH]1 (stereo not shown) [Compound I-102] | < 25% | – | – |
| CN(C)C(=O)c1cc(OCC2COCCO2)cc(-c2ccc(OCC(F)(F)F)cc2)c1 (stereo not shown) [Compound I-162] | < 25% | – | – |
| COc1cc(OCC2COCCO2)nc(-c2ccc(OCc3ccccn3)cc2C)n1 (stereo not shown) [Compound I-134] | < 25% | – | – |
| Cc1cc(OCc2ncccn2)cc(=O)n1[C@H](C)c1ccc(C#CCNC(=O)OC(C)C)cc1 [Compound I-269] | – | < 25% | – |
| O=c1oc2ccc(-c3ccc(C#CC4CC4)cc3)cc2n1CC1CCCCO1 (stereo not shown) [Compound I-167] | < 25% | – | – |
| Cc1cc(C#CC2CC2)ccc1Cn1c(C)nc(OCC2COCCO2)cc1=O (stereo not shown) [Compound I-113] | – | < 25% | – |
| Cc1ccc(-c2ccc(-c3cc(OCC4COCCO4)cc(Cl)n3)c(C)c2)cn1 (stereo not shown) [Compound I-93] | < 25% | – | – |
| Cc1cc(OCC2COCCO2)cc(=O)n1CCc1ccc(C#CC2CC2)cc1 (stereo not shown) [Compound I-234] | – | 50 to 75% | – |
| O=c1cc(OCC2COCCO2)nc(-c2ccc(C#CC3CC3)cc2)[nH]1 (stereo not shown) [Compound I-119] | – | < 25% | – |
| CCCCCCOc1ccc(C(C)n2c(C)cc(OCc3ncccn3)cc2=O)cc1 (stereo not shown) [Compound I-345] | – | < 25% | – |
| COc1cc(OCC2COCCO2)cc(-c2cc(C#CCNc3ccccc3)ccc2C)n1 (stereo not shown) [Compound I-79] | < 25% | – | – |
| Cc1ccc(-c2ccc3c(c2)OCCn2c-3cc(OCC3COCCO3)nc2=O)cn1 (stereo not shown) [Compound I-211] | 25 to 50% | – | pIC50: 5.00 to 5.30 |
| CC(c1ccc(NC(=O)C2CC2)cc1)n1ccc(OCc2ncccn2)cc1=O (stereo not shown) [Compound I-255] | – | < 25% | – |
| COc1cc(OCC2COc3cccnc3O2)cc(-c2ccc(-c3ccc(C)nc3)cc2C)n1 (stereo not shown) [Compound I-64] | – | – | inhibition at 5 µM: < 25% |
| O=c1nc(OCC2COCCO2)cc2n1CCOc1cc(Cl)ccc1-2 (stereo not shown) [Compound I-206] | 25 to 50% | – | – |
| Cc1cc(OCn2ccnc2)cc(=O)n1[C@H](C)c1ccc(C#CC2CC2)cc1 [Compound I-308] | – | > 75% | – |
| Cc1cc(C#CC2CC2)ccc1C(C)n1ccc(OC[C@@H]2COCCO2)cc1=O (stereo partly shown) [Compound I-239] | – | < 25% | – |
| COc1c(C)cc(OCC2COCCO2)nc1-c1ccc(OCC(F)(F)F)cc1 (stereo not shown) [Compound I-78] | < 25% | – | – |
| Cc1cc(OCC(F)(F)F)ccc1-c1cncc(OC[C@H]2COCCO2)c1 [Compound I-32] | – | 25 to 50% | – |
| Cc1cc(OCc2ncccn2)cc(=O)n1Cc1ccc(C#CC2CC2)cc1 [Compound I-237] | – | 50 to 75% | – |
| O=c1nc(OCC2COCCO2)cc2n1CCOc1cc(C#CC3CC3)ccc1-2 (stereo not shown) [Compound I-214] | > 75% | – | pIC50: > 5.30 |
| Cc1cc(OCc2ccccn2)ccc1-c1cc(OCC2COCCO2)[nH]c(=O)c1 (stereo not shown) [Compound I-120] | – | < 25% | – |
| Cc1cc(OCc2ncccn2)cc(=O)n1[C@H](C)c1ccc(N2CC(C)(C)C2)cc1 [Compound I-235] | – | < 25% | – |
| CC(c1ccc(C#CC2CC2)cc1)n1ccc(OCC2COCCO2)cc1=O (stereo not shown) [Compound I-13] | – | > 75% | – |

| SMILES | inhibition at 25 µM | inhibition at 10 µM | other results |
| --- | --- | --- | --- |
| COc1cc(OCC2COCCO2)cc(-c2cc(C#CC3CC3)ccc2C)n1 (stereo not shown) [Compound I-70] | < 25% | – | – |
| Cc1cc(OC[C@@H]2COCCO2)cc(=O)n1C(C)c1ccc(C#CC2CC2)cn1 (stereo partly shown) [Compound I-246] | – | < 25% | – |
| Cc1cc(OCc2ncccn2)cc(=O)n1[C@@H](C)c1ccc(C#CC2CC2)cc1 [Compound I-236] | – | < 25% | – |
| Cc1ccc(-c2ccc(-c3nc(OCC4COCCO4)cc(=O)[nH]3)cc2)cn1 (stereo not shown) [Compound I-139, 6-((1,4-dioxan-2-yl)methoxy)-2-(4-(6-methylpyridin-3-yl)phenyl)pyrimidin-4(3H)-one] | < 25% | – | – |
| Cc1c(C#CC2CC2)cccc1Cn1c(C)cc(OCc2ncccn2)cc1=O [Compound I-241] | – | – | inhibition at 2 µM: < 25% |
| Cn1c(-c2ccc(C#CC3CC3)cc2)nc(OCC2COCCO2)cc1=O (stereo not shown) [Compound I-27] | 25 to 50% | – | – |
| Cc1cc(OCc2cnn(C)n2)cc(=O)n1[C@H](C)c1ccc(C#CC2CC2)cc1 [Compound I-358] | – | > 75% | – |
| CC1(C)CN(c2cccc(Cn3ccc(OCC4COCCO4)cc3=O)c2)C1 (stereo not shown) [Compound I-228] | – | < 25% | – |
| Cc1cc(OCC2COCCO2)nc(=O)n1Cc1ccc(C#CC2CC2)cc1 (stereo not shown) [Compound I-38] | 25 to 50% | – | – |
| Cc1cc(OCc2ccccn2)ccc1-c1cc(OCC2COCCO2)cc(Cl)n1 (stereo not shown) [Compound I-58] | – | – | pIC50: < 4.90; inhibition at 12.5 µM: 25 to 50% |
| COCC#Cc1ccc([C@@H](C)n2c(C)cc(OCC3CCOCC3)cc2=O)cc1 (stereo in doubt) [Compound I-83] | – | < 25% | – |
| COc1cc(OCC2COCCO2)cc(-c2cc(-c3ccc(C)nc3)ccc2C)n1 (stereo not shown) [Compound I-95] | < 25% | – | – |
| Cc1cc(OCc2ncccn2)nc(=O)n1C(C)c1ccc(C#CC2CC2)cc1 (stereo not shown) [Compound I-320] | – | 50 to 75% | – |
| Cc1cc(OC[C@H]2CCCCO2)cc(=O)n1[C@H](C)c1ccc(C#CC2CC2)cc1 [Compound I-145] | – | > 75% | – |
| Cc1cc(OCc2ncccn2)cc(=O)n1-c1cccc(C#CC2CC2)c1 [Compound I-245] | – | < 25% | – |
| Cc1cc(OCC2COCCO2)cc(=O)n1Cc1cc(C#CC2CC2)ccc1F (stereo not shown) [Compound I-143] | – | < 25% | – |
| Cc1cc(OCc2ncccn2)cc(=O)n1[C@H](C)c1ccc(C#CCN2CC(C)(C)C2)cc1 [Compound I-259] | – | < 25% | – |
| Cc1ccc(-c2ccc(-c3ccc4oc(=O)n(CC5CCCCO5)c4c3)cc2)cn1 (stereo not shown) [Compound I-168] | – | – | inhibition at 5 µM: < 25% |
| COc1cc(OCC2COCCO2)cc(-c2ccc(OCC(F)(F)F)cc2)c1C (stereo not shown) [Compound I-157] | < 25% | – | – |
| Cc1cc(OCc2ncccn2)cc(=O)n1C(C)c1ccc(Oc2ccccc2)cc1 (stereo not shown) [Compound I-307] | – | < 25% | – |
| Cc1cc(OCC2COCCO2)cc(=O)n1[C@H](C)c1ccc(N2CC(C)(CO)C2)cc1 (stereo partly shown) [Compound I-224] | – | < 25% | – |
| COc1ccc2nc(-c3ccc(C#CC4CC4)cc3)cn2c1 [Compound I-216] | – | < 25% | – |
| Cc1cc(NC(=O)c2ncccn2)cc(=O)n1[C@H](C)c1ccc(C#CC2CC2)cc1 [Compound I-360] | – | > 75% | pIC50: > 5.30 |
| O=C(CC1CCCCO1)N1Cc2ccc(C#CC3CC3)cc2C1 (stereo not shown) [Compound I-186] | 25 to 50% | – | – |
| Cc1cc(OCC2COc3ccccc3O2)cc(=O)n1Cc1ccc(C#CC2CC2)cc1 (stereo not shown) [Compound I-73] | – | – | inhibition at 12.5 µM: < 25% |

| SMILES | inhibition at 25 µM | inhibition at 10 µM | other results |
| --- | --- | --- | --- |
| Cc1cc(OCC2CCOCC2)cc(=O)n1[C@H](C)c1ccc(C#CCO)cc1 (stereo in doubt) [Compound I-61] | – | 25 to 50% | – |
| C(#CC1CC1)c1ccc(Cc2cccc(OCC3COCCO3)c2)cc1 (stereo not shown) [Compound I-174] | < 25% | – | – |
| Cc1ccc(-c2ccc(Cn3c(C)cc(OCC4COCCO4)cc3=O)cc2)cn1 (stereo not shown) [Compound I-91] | < 25% | – | – |
| Cc1cc(OCC2COCCO2)cc(=O)n1-c1cccc(C#CC2CC2)c1 (stereo not shown) [Compound I-226] | – | 50 to 75% | – |
| Cc1cc(OCc2ncccn2)cc(=O)n1C(C)c1ccc(C#CCNc2ccccc2)cc1 (stereo not shown) [Compound I-312] | – | < 25% | – |
| O=c1nc(OCC2COCCO2)cc(-c2ccc(OCC(F)(F)F)cc2)[nH]1 (stereo not shown) [Compound I-10] | < 25% | – | – |
| Cc1cc(OCc2cncn2C)cc(=O)n1[C@H](C)c1ccc(C#CC2CC2)cc1 [Compound I-349] | – | – | inhibition at 2 µM: > 75% |
| CCn1ccnc1COc1cc(C)n([C@H](C)c2ccc(C#CC3CC3)cc2)c(=O)c1 [Compound I-356] | – | – | pIC50: > 5.30; inhibition at 2 µM: > 75% |
| Cc1cc(OCc2ncccn2)cc(=O)n1Cc1cccc(C#CCNc2ccccc2)c1 [Compound I-280] | – | < 25% | – |
| Cc1cc(OCC2CCCCO2)cc(=O)n1C(C)c1ccc(OCC(F)(F)F)cc1 (stereo not shown) [Compound I-274] | – | < 25% | – |
| Cc1cc(OCc2ncccn2)cc(=O)n1C(C)c1cc(C#CC2CC2)cs1 (stereo not shown) [Compound I-265] | – | < 25% | – |
| FC(F)(F)COc1ccc(-c2cc(OCC3COCCO3)cc3c2OCCO3)cc1 (stereo not shown) [Compound I-155] | < 25% | – | – |
| Cc1ccc(-c2ccc(-c3nccc(OCC4CCCCO4)n3)cc2)cn1 (stereo not shown) [Compound I-133] | < 25% | – | – |
| Cc1cc(OCc2ncccn2)cc(=O)n1[C@H](C)c1ccc(C#CC2CC2)nc1 [Compound I-288] | – | 25 to 50% | – |
| Cc1cc(OCc2nccn2C)cc(=O)n1C(C)c1ccc(C#CC2CC2)c(F)c1 (stereo not shown) [Compound I-361] | – | – | pIC50: > 5.30; inhibition at 2 µM: > 75% |
| CSc1nc(OCC2COCCO2)cc(-c2cnc(OCC(F)(F)F)cc2C)n1 (stereo not shown) [Compound I-9] | < 25% | – | – |
| Cc1cc(OCc2cnccc2Cl)cc(=O)n1[C@H](C)c1ccc(C#CC2CC2)cc1 [Compound I-315] | – | – | pIC50: > 5.30; inhibition at 2 µM: > 75% |
| Cc1cc(OCc2cccnn2)cc(=O)n1C(C)c1ccc(C#CC2CC2)c(F)c1 (stereo not shown) [Compound I-363] | – | – | pIC50: > 5.30; inhibition at 2 µM: > 75% |
| COc1cc(OCC2COCCO2)cc(-c2c(C)cc(OCc3ccccc3)cc2C)n1 (stereo not shown) [Compound I-125] | < 25% | – | – |
| Cc1cc(OC[C@@H]2COCCO2)cc(=O)n1[C@H](C)c1ccc(C#CC2CC2)cc1 [Compound I-396] | – | – | pIC50: > 5.30 |
| CCc1cc(OCC2COCCO2)cc(=O)n1C(C)c1ccc(C#CC2CC2)cc1 (stereo not shown) [Compound I-50] | – | 25 to 50% | – |
| Cc1cc(OCc2ncccn2)cc(=O)n1Cc1cccc(N2CC(C)(C)C2)c1 [Compound I-271] | – | < 25% | – |
| Cc1cc(OCc2ccncn2)cc(=O)n1[C@H](C)c1ccc(C#CC2CC2)cc1 [Compound I-258] | – | – | pIC50: > 5.30; inhibition at 2 µM: > 75% |
